Results taken from publication PMC6332510, “Leishmanicidal Activity of (+)-Phyllanthidine and the Phytochemical Profile of Margaritaria nobilis (Phyllanthaceae)” (Molecules, 2015).
Several values for one entry are separate records, joined by “and”; a condition that tells them apart may be missing. Identical values can stand only once. Entries after “also recorded” stand apart in the source; their conditions may differ.

What was measured:
[1] = test system: L. (V.) peruviana promastigote forms; parameters: method as in PMID 19489596; details: cited from earlier work
[2] = test system: L. (V) braziliensis promastigote forms; parameters: method as in PMID 19489596; details: cited from earlier work
[3] = test system: L. mexicana; parameters: method as in doi:10.1080/13880200600878361; details: cited from earlier work
[4] = test system: Leishmania amazonensis; parameters: method as in PMID 19748254; details: cited from earlier work
[5] = test system: L. braziliensis; parameters: method as in PMID 19748254; details: cited from earlier work
[6] = test system: Leishmania (L.) amazonensis promastigotes; assay: Ultrastructural assay (SEM and TEM); format: cell-based
Experimental: Scanning Electron Microscopy (SEM): Promastigotes were treated with 50 and 100 µg/mL of (+)-phyllanthidine for 4 days, and they were fixed with paraformaldehyde (4%) and glutaraldehyde (2.5%) in cacodylate buffer (0.1 M) for one hour. The cells were post-fixed in osmium tetroxide (1%), dehydrated in graded ethanol, brought to their critical point with CO2, coated with gold and analyzed in a Zeiss LEO 1450VP SEM (Göttingen, Germany).
Transmission Electron Microscopy (TEM): Promastigotes treated with 50 and 100 µg/mL (+)-phyllanthidine for 4 days were fixed with glutaraldehyde (2.5%) and paraformaldehyde (4%) in cacodylate buffer (0.1 M) for one hour. The parasites were post-fixed in an osmium tetroxide solution (1%) and ferrocyanide (0.8%), dehydrated in graded acetone and embedded in epoxy resin. Ultrathin sections were obtained, stained with uranyl acetate/lead citrate and examined with a Zeiss 906E TEM (Göttingen, Germany).

[7] = test system: Leishmania (L.) amazonensis promastigotes; assay: Anti-promastigote assay (MTT); format: cell-based
Experimental: Promastigotes from Leishmania (L.) amazonensis (MHOM/BR/26361) were obtained in NNN (Neal, Novy and Nicolle) medium from the Instituto Evandro Chagas and subsequently maintained in RPMI medium supplemented with 10% heat-inactivated fetal bovine serum (FBS) at 25 °C.
Leishmania (L.) amazonensis promastigotes (10^6 parasites/mL) were seeded in 24-well plates with RPMI medium without phenol, the medium was supplemented with 10% FBS, and the cells were then treated with different concentrations of (+)-phyllanthidine (10, 20, 50, 100 and 200 µg/mL). The cultures were incubated at 25 °C for 4 days without medium replacement. Every 24 h, aliquots were harvested and promastigotes were incubated with 20 µL of MTT (2 µg/mL) for 4 h. Then, 20 µL of DMSO was added to the wells, and the plate was allowed to shake for 30 min for complete solubilization. One known anti-leishmanial drug (Amphotericin B—0.5 µg/mL) was used as a positive control.

[8] = test system: Leishmania (L.) amazonensis amastigotes; assay: Anti-amastigote assay in infected peritoneal macrophages; format: cell-based; details: for parasite (amastigote) reduction: infected macrophages, vs untreated cells
Experimental: (§1) Macrophages were obtained from the peritoneal cavity of male mouse BALB/c (Mus musculus), and the animals were sacrificed in a CO2 chamber (Insight®). The material was harvested with Hank’s solution, concentrated by centrifugation at 4 °C, cultured in a 24-well plate and incubated in an atmosphere containing 5% CO2 at 37 °C for 1 h. After that, non-adherent cells were washed with DMEM and incubated for 24 h with DMEM medium supplemented with 10% FBS. The experimental protocol was approved by the Committee on the Ethics of Animal Experiments (CEPAE, grant number 046-2015) of Universidade Federal do Pará.
Adherent peritoneal macrophages were infected with Leishmania (L.) amazonensis promastigotes (stationary growth phase) at a parasite/macrophage ratio of 10:1 and incubated for 3 h at 37 °C and 5% CO2. After 3 h, free parasites were removed by washing with PBS pH 7.2, and the cultures were treated with 50 and 100 µg/mL (+)-phyllanthidine for 48 h post infection, without replacing the culture medium. The cells were washed with PBS pH 7.2, fixed with methanol and stained with Giemsa. The number of parasites was determined by examining three cover slips for each treatment. At least 100 infected macrophages were counted, and the results were expressed as the survival percentage, in comparison with controls. Amphotericin B (0.5 µg/mL) was used as a positive control. The selectivity index (SI) was calculated as the ratio between the cytotoxicity and antiparasitic activity against intracellular amastigotes.

[9] = Cytotoxicity assay of host cells (MTT); format: cell-based, mouse BALB/c (Mus musculus); details: male, BALB/c, mouse, peritoneal macrophages
Experimental: as §1
(§2) MTT is a tetrazolium salt that is converted into blue formazan crystals that are insoluble in water after cleavage by mitochondrial dehydrogenases, which causes them to accumulate in viable cells. The procedure was performed according to Fotakis and Timbrell (2006), with some modifications. Macrophages treated with 10, 20, 50, 100 and 200 µg/mL of (+)-phyllanthidine for 48 h and untreated cells were incubated with MTT (0.5 mg/mL) dissolved in phosphate-buffered saline (PBS), pH 7.2 for 3 h in a humidified atmosphere containing 5% CO2 at 37 °C. […] The absorbance of each solution was recorded at an optical density (OD) of 570 nm using a spectrophotometer (Bio-Rad Model 450 Microplate Reader). The assay specificity was determined by using non-viable cells treated with 10% formaldehyde in PBS. […]

[10] = test system: peritoneal macrophages; assay: Cytotoxicity assay of host cells (MTT); format: cell-based, mouse BALB/c (Mus musculus); details: 10-200 µg/mL, 48 h
Experimental: as §1, §2

[11] = test system: Leishmania infected-macrophages; parameters: method as in PMID 18164321; details: 250 μM; cited from earlier work
[12] = test system: L. major-infected cell; parameters: method as in PMID 16143535; details: compared with non-infected conditions; cited from earlier work
[13] = test system: L. (L.) amazonensis amastigote form; parameters: method as in PMID 20661748; details: 79 μM, 72 h; cited from earlier work
[14] = test system: L. (L.) amazonensis promastigote; details: 72 h of treatment; cited from earlier work

Structure (SMILES): O=c1c(O)c(-c2ccc(O)cc2)oc2cc(O)cc(O)c12 [Kaempferol, kaempferol]
- leishmanicidal activity [1]: showed leishmanicidal activity
- leishmanicidal activity [2]: showed leishmanicidal activity

Structure (SMILES): COC(=O)c1cc(O)c(O)c(O)c1 [Methyl galate, methyl gallate]
- IC50 [3]: 33.6 µM

Structure (SMILES): C=C(C)[C@@H]1CC[C@]2(C(=O)O)CC[C@]3(C)[C@H](CC[C@@H]4[C@@]5(C)CC[C@H](O)C(C)(C)[C@@H]5CC[C@]43C)[C@@H]12 [betulinic acid]
- antiprotozoal activity [4]: No antiprotozoal activity
- antiprotozoal activity [5]: No antiprotozoal activity

Structure (SMILES): O=C1C=C2C=CC3CC2(O1)C1CCCCN1O3 (single isomer, unassigned; (+)) [(+)-phyllanthidine]
- promastigote ultrastructural changes (TEM) ([6]; 50 µg/mL, 96 h): kinetoplast swelling
- promastigote ultrastructural changes (TEM) ([6]; 100 µg/mL): increase in the number of acidocalcisome-like structures
- IC50 ([7]; Leishmania, 96 h, 96 h of treatment): 82.4 µg/mL and 353 µM
- inhibition at 100 µg/mL ([7]; Leishmania, 100 µg/mL, 96 h of treatment, read-out: inhibition of promastigote growth): 67.7%
- parasite (amastigote) reduction ([8]; 50 μg/mL, 48 h): 75.5%
- parasite (amastigote) reduction ([8]; 100 μg/mL, 48 h): 83.96%
- IC50 ([8]; Leishmania, Peritoneal macrophage, 48 h of treatment): 49.1 µg/mL and 210 µM
- selectivity index (SI) ([8]; ratio between cytotoxicity (macrophages) and activity against intracellular amastigotes): 25.08
- CC50 at 48 h [9]: > 200 µg/mL
- cytotoxic effect on macrophages [10]: no cytotoxic effects on macrophages; also recorded: No cytotoxic effect was detected

Structure (SMILES): C[C@@H]1[C@H](O)[C@@H](C)/C=C/C=C/C=C/C=C/C=C/C=C/C=C/[C@H](O[C@@H]2O[C@H](C)[C@@H](O)[C@H](N)[C@@H]2O)C[C@@H]2O[C@](O)(C[C@@H](O)C[C@@H](O)[C@H](O)CC[C@@H](O)C[C@@H](O)CC(=O)O[C@H]1C)C[C@H](O)[C@H]2C(=O)O [Amphotericin B, reference compound]
- reduction of promastigotes (positive control) ([7]; 0.5 μg/mL (0.54 µM), 96 h): 100%
- amastigote reduction (positive control) ([8]; 0.5 µg/mL (0.54 µM), 48 h): 90.42%

Structure (SMILES): O=C(O)c1cc(O)c(O)c(O)c1 [gallic acid]
- NO-production [11]: modest NO-production
- parasite viability [11]: did not reduce parasite viability

Structure (SMILES): CCCCCCCCCCCCCCCCOP(=O)([O-])OCC[N+](C)(C)C [miltefosine, reference compound]
- IC50 [3]: 0.5 µM

Structure (SMILES): O=C(O[C@@H]1O[C@@H]2COC(=O)c3cc(O)c(O)c(O)c3-c3c(cc(O)c(O)c3O)C(=O)O[C@H]([C@H]1O)[C@@H]2O)c1cc(O)c(O)c(O)c1 [Corilagin, corilagin]
- iNOS and cytokine mRNA levels [12]: capable of enhancing the iNOS and cytokine mRNA levels

Structure (SMILES): CCC(C)C(=O)NC1CCC(=O)N(CCc2ccccc2)C1=O (centres unmarked) [julocrotine]
- reduction of amastigote form [13]: 80%
- reduction in promastigotes [14]: 54%
